These results are taken from US11472792B2, “Herbicidal mixtures” (SYNGENTA CROP PROTECTION AG, priority 2019, dated 2022).

Common to all, as to type: in vivo
For assay [1], the system named is Abutilon theophrasti (ABUTH). Description: Herbicidal efficacy, post-emergence application (glasshouse). The following applies: evaluated visually after 13 days, 100=total damage, 0=no damage; for pest or weed control at 250 g/ha: Abutilon theophrasti, 312 h, read-out: percentage phytotoxicity to the plant, ABUTH. Here is the method: (§1) Seeds of a variety of test species [Ipomoea hederacea (IPOHE); Zea mays (ZEAMX); Echinochloa crus-galli (ECHCG); Setaria faberi (SETFA); Abutilon theophrasti (ABUTH); Amaranthus retroflexus (AMARE)] were sown in standard sterilised soil in pots. After cultivation for one day (pre-emergence) or after 8 days cultivation (post-emergence) under controlled conditions in a glasshouse (at 24/16° C., day/night; 14 hours light; 65% humidity), the plants were sprayed with an aqueous spray solution derived from the formulation of the technical active ingredient in acetone/water (50:50) solution containing 0.5% Tween 20 (polyoxyethelyene sorbitan monolaurate, CAS RN 9005-64-5), subsequently diluted in water, and sprayed to give the stated application rate.
(§2) The test plants were then grown under controlled conditions in a glasshouse (at 24/16° C., day/night; 14 hours light; 65% humidity) and watered twice daily.
(§3) After 13 days for pre and post-emergence, the test was evaluated visually for percentage phytotoxicity to the plant (where 100=total damage to plant; 0=no damage to plant).

The subject of assay [2] is Amaranthus retroflexus (AMARE). The assay is described as above. Conditions: evaluated visually after 13 days, 100=total damage, 0=no damage; for pest or weed control at 250 g/ha: Amaranthus retroflexus, 312 h, read-out: percentage phytotoxicity to the plant, AMARE. Here is the method:
as §1, §2, §3

Assay [3] concerns Echinochloa crus-galli (ECHCG). Described as above. Conditions: evaluated visually after 13 days, 100=total damage, 0=no damage; for pest or weed control at 250 g/ha: Echinochloa crus-galli, 312 h, read-out: percentage phytotoxicity to the plant, ECHCG. Here is the method:
as §1, §2, §3

For assay [4], the system named is Ipomoea hederacea (IPOHE). Described as above. Conditions: evaluated visually after 13 days, 100=total damage, 0=no damage; for pest or weed control at 250 g/ha: Ipomoea hederacea, 312 h, read-out: percentage phytotoxicity to the plant, IPOHE. Here is the method: as §1, §2, §3
For assay [5], the system named is Setaria faberi (SETFA). The description is as above. Conditions: evaluated visually after 13 days, 100=total damage, 0=no damage; for pest or weed control at 250 g/ha: Setaria faberi, 312 h, read-out: percentage phytotoxicity to the plant, SETFA. Here is the method:
as §1, §2, §3

The test system of assay [6] is Zea mays (ZEAMX). The assay is described as above. Conditions: evaluated visually after 13 days, 100=total damage, 0=no damage; for plant injury at 250 g/ha: Zea mays, 312 h, read-out: percentage phytotoxicity to the plant, ZEAMX. The procedure: as §1, §2, §3
Assay [7] relates to Abutilon theophrasti (ABUTH). Description: Herbicidal efficacy, pre-emergence application (glasshouse). Conditions: evaluated visually after 13 days, 100=total damage, 0=no damage; for pest or weed control at 250 g/ha: Abutilon theophrasti, 312 h, read-out: percentage phytotoxicity to the plant, ABUTH. The procedure: as §1, §2, §3
The subject of assay [8] is Amaranthus retroflexus (AMARE). The assay is described as above. Conditions: evaluated visually after 13 days, 100=total damage, 0=no damage; for pest or weed control at 250 g/ha: Amaranthus retroflexus, 312 h, read-out: percentage phytotoxicity to the plant, AMARE. Here is the method:
as §1, §2, §3

Assay [9] deals with Echinochloa crus-galli (ECHCG). Described as above. Conditions: evaluated visually after 13 days, 100=total damage, 0=no damage; for pest or weed control at 250 g/ha: Echinochloa crus-galli, 312 h, read-out: percentage phytotoxicity to the plant, ECHCG. Here is the method: as §1, §2, §3
The test system of assay [10] is Ipomoea hederacea (IPOHE). The description is as above. The following applies: evaluated visually after 13 days, 100=total damage, 0=no damage; for pest or weed control at 250 g/ha: Ipomoea hederacea, 312 h, read-out: percentage phytotoxicity to the plant, IPOHE. Here is the method:
as §1, §2, §3

Assay [11] deals with Setaria faberi (SETFA). The description is as above. The following applies: evaluated visually after 13 days, 100=total damage, 0=no damage; for pest or weed control at 250 g/ha: Setaria faberi, 312 h, read-out: percentage phytotoxicity to the plant, SETFA. The procedure: as §1, §2, §3
For assay [12], the system named is Zea mays (ZEAMX). Described as above. The following applies: evaluated visually after 13 days, 100=total damage, 0=no damage; for plant injury at 250 g/ha: Zea mays, 312 h, read-out: percentage phytotoxicity to the plant, ZEAMX. Here is the method: as §1, §2, §3

In the case of `COc1c(F)cccc1NC(=O)[C@H]1C(=O)N(C)C[C@@H]1c1cc(C(F)(F)F)n(C)n1` [Compound 2.6, (3S,4R)-N-(3-fluoro-2-methoxy-phenyl)-1-methyl-4-[1-methyl-5-(trifluoromethyl)pyrazol-3-yl]-2-oxo-pyrrolidine-3-carboxamide], the pest or weed control at 250 g/ha was found to be 0% in assay [1]; 0% in assay [2]; 70% in [3]; 50% in assay [4]; 70% in [5]; 0% in assay [7]. Further, the pest or weed control at 250 g/ha was determined as 0% in [8], 90% in assay [9], 20% in assay [10] and 90% in [11]. Further, the plant injury at 250 g/ha in [6] and in assay [12] was 80% throughout.

Turning to `CN1C[C@H](c2cc(C(F)(F)F)n(C)n2)[C@@H](C(=O)Nc2ccc(F)cc2F)C1=O` [Compound 2.3, (3S,4R)-N-(2,4-difluorophenyl)-1-methyl-4-[1-methyl-5-(trifluoromethyl)pyrazol-3-yl]-2-oxo-pyrrolidine-3-carboxamide], the pest or weed control at 250 g/ha in assay [1] came out at 60%; in assay [2], 10%; in [3] it was 70%; in [4] it was 10%; in [5], 70%; in assay [7], 70%. For the same compound, the pest or weed control at 250 g/ha in [8] is 50%; in assay [9] it was 90%; in assay [10], 10%; in assay [11] it was 90%. The plant injury at 250 g/ha in assay [6] and in [12] was 60% throughout.

`CN1C[C@H](c2cc(C(F)(F)F)n(C)n2)[C@@H](C(=O)Nc2cccc(F)c2F)C1=O` [Compound 2.1, (3S,4R)-N-(2,3-difluorophenyl)-1-methyl-4-[1-methyl-5-(trifluoromethyl)pyrazol-3-yl]-2-oxo-pyrrolidine-3-carboxamide]: the pest or weed control at 250 g/ha turned out to be 0% in assay [1]; 20% in assay [2]; 90% in [3]; 0% in assay [4]; 90% in assay [5]; 10% in [7]. For the same compound, the pest or weed control at 250 g/ha is 70% in assay [8], 100% in assay [9], 30% in [10] and 90% in assay [11]. Besides, the plant injury at 250 g/ha in assay [6] worked out at 80%; in assay [12], 90%.

On to `CN1C[C@H](c2cc(C(F)(F)F)n(C)n2)[C@@H](C(=O)Nc2cccc(F)c2C(F)(F)F)C1=O` [Compound 2.5, (3S,4R)-N-[3-fluoro-2-(trifluoromethyl)phenyl]-1-methyl-4-[1-methyl-5-(trifluoromethyl)pyrazol-3-yl]-2-oxo-pyrrolidine-3-carboxamide], for which the pest or weed control at 250 g/ha worked out at 0% in assay [1]; 30% in assay [2]; 80% in assay [3]; 0% in [4]; 80% in assay [5]; 0% in [7]. In addition, the pest or weed control at 250 g/ha in assay [8] amounted to 0%; in [9] it was 90%; in assay [10], 10%; in assay [11], 90%. Moreover, the figures for the plant injury at 250 g/ha in assay [6] and in assay [12] were 10% and 20%, respectively.

Consider “(3S,4R)-N-[2-(1,1-difluoroethyl)-3-fluoro-phenyl]-1-methyl-4-[1-methyl-5-(trifluoromethyl)pyrazol-3-yl]-2-oxo-pyrrolidine-3-carboxamide [Compound 2.12]”, for which the “percentage phytotoxicity to the plant, ABUTH” value in [1] (250 g/ha) and in assay [7] (250 g/ha) was 0% each time. Also, the “percentage phytotoxicity to the plant, AMARE” value in assay [2] (250 g/ha) and in assay [8] (250 g/ha) was 0% throughout. Also, the “percentage phytotoxicity to the plant, ECHCG” value in [3] (250 g/ha) and in [9] (250 g/ha) was 90% each time. Besides, the “percentage phytotoxicity to the plant, IPOHE” value is 50% in assay [4] (250 g/ha) and 70% in [10] (250 g/ha). Further, the “percentage phytotoxicity to the plant, SETFA” value in assay [5] (250 g/ha) and in [11] (250 g/ha) was 90% each time. The “percentage phytotoxicity to the plant, ZEAMX” value in assay [6] (250 g/ha) is 80%; in assay [12] (250 g/ha), 90%.

`CN1C[C@H](c2cnn(C)c2C(F)(F)F)[C@@H](C(=O)Nc2cccc(F)c2F)C1=O` [Compound 2.15, (3S,4S)-N-(2,3-difluorophenyl)-1-methyl-4-[1-methyl-5-(trifluoromethyl)pyrazol-4-yl]-2-oxo-pyrrolidine-3-carboxamide]: the pest or weed control at 250 g/ha in assay [1] amounted to 0%; in assay [2], 0%; in [3] it was 80%; in assay [4] it was 40%; in assay [5], 80%; in assay [7] it was 40%. Besides, the pest or weed control at 250 g/ha was determined as 0% in [8], 100% in assay [9], 20% in assay [10] and 100% in [11]. Besides, the plant injury at 250 g/ha in [6] turned out to be 30%; in assay [12] it was 40%.

As to `CCc1ccccc1NC(=O)[C@H]1C(=O)N(C)C[C@@H]1c1cc(C(F)(F)F)n(C)n1` [Compound 2.11, (3S,4R)-N-(2-ethylphenyl)-1-methyl-4-[1-methyl-5-(trifluoromethyl)pyrazol-3-yl]-2-oxo-pyrrolidine-3-carboxamide], the pest or weed control at 250 g/ha in [1] came out at 0%; in [2], 20%; in assay [3], 80%; in [4] it was 0%; in [5] it was 80%; in [7], 0%. The pest or weed control at 250 g/ha is 70% in assay [8], 90% in assay [9], 0% in assay [10] and 90% in [11]. Moreover, the figures for the plant injury at 250 g/ha in assay [6] and in assay [12] were 0% and 20%, respectively.

As for `CN1C[C@H](c2cc(C(F)(F)F)n(C)n2)[C@@H](C(=O)Nc2ccccc2F)C1=O` [Compound 2.2, (3S,4R)-N-(2-fluorophenyl)-1-methyl-4-[1-methyl-5-(trifluoromethyl)pyrazol-3-yl]-2-oxo-pyrrolidine-3-carboxamide], the pest or weed control at 250 g/ha in assay [1] came to 0%; in assay [2], 0%; in assay [3], 90%; in assay [4] it was 0%; in assay [5], 90%; in [7], 0%. Further, the pest or weed control at 250 g/ha is 20% in [8], 90% in assay [9], 0% in assay [10] and 90% in [11]. The values for the plant injury at 250 g/ha in assay [6] and in assay [12] were 50% and 20%, respectively.
